The subject of series [1] is doxorubicin-resistant K562 (K562/R) cell line.
Method: (§1) Cytotoxicity Assay: Both epimers were tested for their cytotoxicities against human leukemia K562 (K562/S) and doxorubicin-resistant K562 (K562/R) cell lines, using the SRB method previously described with doxorubicin being the positive control. The OD data were recorded in X±S, and the IC50 values were calculated with sigmoidal plot.
The test system of series [2] is human leukemia K562 (K562/S) cell line.
Method: as §1
The test system of series [3] is doxorubicin-resistant K562 (K562/R) cell line. Nature of the series: MTT cytotoxicity assay, doxorubicin-resistant K562. Type of series: cell-based, human. The settings on record: read-out: Cytotoxicity IC50 against K562/R. The method, then:
MTT assay was performed using a reported method. […] Absorbance of untreated controls was taken as 100%. […] An aliquot of the supernatant was analyzed by HPLC.

Series [4] relates to human cytochrome P-450 enzymes (1A2, 2A6, 2D6, 2E1, 3A4). Nature of the series: CYP inhibition in human liver microsomes, five isoforms other than CYP2C9. The class given is in vitro ADME. The settings on record: probe reactions.
In series [5] the test system is human leukemia K562 (K562/S) cell line. Put plainly: MTT cytotoxicity assay, doxorubicin-sensitive K562.
Method: Both doxorubicin-resistant (K562/R) and -sensitive K562 (K562/S) cell sublines, purchased from Tianjin Instute of Hematopathy, the Chinese Academy of Medical Sciences, China, were cultured in PRMI1640 (Gibco, USA) medium and supplemented with 10 fetal bovine serums at 37° C. in a humidified incubator with 5% CO2. MTT assay was performed using a reported method [12]. Cell lines were seeded into 96-well plates at 6000 viable cells per well. The test chemicals (ADR, DMSO, Th1 and Th2) with different concentrations were loaded in a final volume of 200 μL per well. After 44 hours of incubation, MTT (5 g/L) was added to each well in a volume of 10 μl and incubated for 4 hours. Afterwards, the medium was removed and 200 μl of Me2SO (37° C.) was added and shaken for 5 minutes. A 96-well microtiter plate reader was used to determine absorbance values at 570 nm. Mean value of each concentration (n=3 wells) was obtained. Absorbance of untreated controls was taken as 100%. Survival rate was calculated as follows: Cell survival rate (%)=(T−B)/(U−B)×100%, T (treated) is absorbance of chemically treated cells, U (untreated) is the absorbance of untreated cells, and B (blank) is the absorbance when neither cells nor chemicals was added.
In the next series the target is T1, CYP2C9 (Homo sapiens, UniProt P11712).
T1 construct: HLM were prepared from liver tissue as described in the literature [13]; from tissue; host or cells: human liver microsomes prepared from an autopsy liver sample (person)
T1 sequence (P11712 whole entry): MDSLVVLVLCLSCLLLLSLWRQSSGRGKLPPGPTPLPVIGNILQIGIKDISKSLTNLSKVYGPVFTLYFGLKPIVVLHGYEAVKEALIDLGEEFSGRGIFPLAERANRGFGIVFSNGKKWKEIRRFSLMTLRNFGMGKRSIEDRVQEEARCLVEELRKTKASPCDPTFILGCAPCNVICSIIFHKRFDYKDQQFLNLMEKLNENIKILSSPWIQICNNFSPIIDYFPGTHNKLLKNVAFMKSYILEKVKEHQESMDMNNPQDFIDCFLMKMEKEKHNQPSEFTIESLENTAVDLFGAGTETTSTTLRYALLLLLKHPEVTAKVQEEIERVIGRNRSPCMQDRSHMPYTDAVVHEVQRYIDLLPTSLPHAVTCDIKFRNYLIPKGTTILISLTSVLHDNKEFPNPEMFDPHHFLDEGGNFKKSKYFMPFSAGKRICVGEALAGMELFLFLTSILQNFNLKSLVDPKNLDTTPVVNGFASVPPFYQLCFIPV
Type of series: in vitro ADME. The settings on record: microsomes.

For series [6], the system named is human leukemia K562 (K562/S) cell line. Nature of the series: SRB cytotoxicity assay, K562/S. The following applies: K562, read-out: Cytotoxicity IC50 against K562/S.
Method: as §1
In series [7] the test system is doxorubicin-resistant K562 (K562/R) cell line. Nature of the series: SRB cytotoxicity assay, doxorubicin-resistant K562. The following applies: Homo sapiens, K-562R, read-out: Cytotoxicity IC50 against K562/R.
Method: as §1
Setting [8] is: Homo sapiens, K562, read-out: Cytotoxicity IC50 against K562/S.

Like-named read-outs stand apart in the source and are kept apart here.

On to 30-hydroxyepigambogic acid [compound 2], for which the IC50 in series [1] amounted to 4490 ± 310 nM; in series [2] it was 3610 ± 170 nM.
As for 30-hydroxygambogic acid [compound 1], the IC50 in series [1] was 2890 ± 350 nM; in series [2] it was 1270 ± 150 nM.
As to `CC(C)=CCC[C@]1(C)C=Cc2c(O)c3c(c(CC=C(C)C)c2O1)O[C@]12C(=C[C@@H]4C[C@H]1C(C)(C)O[C@@]2(C/C=C(/C)C(=O)O)C4=O)C3=O` (single isomer, unassigned) [Epimer 1, gambogic acid], the IC50 in series [3] (Homo sapiens, K-562R) worked out at 1320 nM; in series [5] (setting [8]), 890 nM. Further, the “Inhibitory effect toward five human cytochrome P-450 enzymes other than CYP2C9” value in series [4] was “little inhibitory effects”.
Consider `CC(C)=CCCC1(C)C=Cc2c(O)c3c(c(CC=C(C)C)c2O1)OC12C(=CC4CC1C(C)(C)OC2(CC=C(C)C(=O)O)C4=O)C3=O` (single isomer, unassigned; epimer 2) [Epimer 2, epigambogic acid], for which the IC50 is 1110 nM in series [3] (doxorubicin-resistant K562/R, Example 1 MTT assay, Table 4 columns marked ^a) and 860 nM in series [5] (read-out: Cytotoxicity IC50 against K562/S, K562/S, Example 1 MTT assay, Table 4 columns marked ^a). Also, the “Inhibitory effect toward five human cytochrome P-450 enzymes other than CYP2C9” value in series [4] is reported as “little inhibitory effects”. For the same compound, the “CYP2C9 inhibitory effect, S-epimer relative to R-epimer” value on CYP2C9 amounted to 20 folds.
Take `COc1cccc2c1C(=O)c1c(O)c3c(c(O)c1C2=O)C[C@@](O)(C(=O)CO)C[C@@H]3O[C@H]1C[C@H](N)[C@H](O)[C@H](C)O1` [Doxorubicin, doxorubicin, reference compound]: the IC50 worked out at 10800 nM in series [3] (Homo sapiens, K-562R, doxorubicin-resistant K562/R, Example 1 MTT assay, Table 4 columns marked ^a); 110 ± 10 nM in series [6]; 660 nM in series [5] (setting [8]); 1790 ± 170 nM in series [7].

The values above are taken from patent US7592367B2, “Compounds from Garcinia hanburyi, their use in treating cancer and method of separating epimers thereof” (priority 2005, dated 2009).
